Assay results as given in publication PMC11783601, “Analogue-Sensitive Inhibition of Histone Demethylases Uncovers Member-Specific Function in Ribosomal Protein Synthesis” (Journal of the American Chemical Society, 2025).

Experiments:
Type in all cases: biochemical
[1] = molecular target: T1, KDM6B (Homo sapiens, UniProt O15054); assay: MALDI-based assay for KDM6B on H3K27me3 peptide; details: MALDI-TOF
T1 construct: The plasmid construct for the catalytic domain of wild type KDM6B; 6xHis (N); made in house; host or cells: E. coli Rosetta [DE3]
T1 sequence (O15054 1339-1502 limits assumed): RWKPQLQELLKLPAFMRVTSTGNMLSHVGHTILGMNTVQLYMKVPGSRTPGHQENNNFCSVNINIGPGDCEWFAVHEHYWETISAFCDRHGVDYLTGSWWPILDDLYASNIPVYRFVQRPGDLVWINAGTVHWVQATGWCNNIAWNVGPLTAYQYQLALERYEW
Protocol: (NH4)2Fe(SO4)2, 1 mM L-ascorbic acid, 1 mM NAD+, 200 nM FDH, and 1 µM KDM4A) in varying concentrations (0-10 µM). The experiments were performed in 384-well white Corning plates. The fluorescence intensity was measured with excitation = 340 nm and emission = 490 nm on a TECAN Infinite M1000Pro. Triplicate values were taken for each concentration.
The set up and analysis for IC50 of L-Leu NOG against KDM4A F185A enzyme was similar to that described in the coupled fluorescence assay section, but adjusted to function as an end point […]
2 mM L-ascorbic acid, 1 mM NAD+, 200 nM FDH, 3 µM wild type KDM4A or KDM4A-F185A, and varying concentration of compounds (NOGs 6, 9 and 10) and a substrate cocktail (200 µM 2OG and 60 µM H3K9me3 peptide). Different concentrations of NOG 6 were measured at one […]
For 9 and 10, the same set-up remained, but enzymatic activity was measured via MALDI-TOF analysis, and relative activity and inhibition was calculated for different NOG concentrations as described above. […]
equivalent volume of water in 10 µL aliquots. […] The sample was ionized with Bruker FlexControl in the reflectron positive mode and analyzed on Bruker FlexAnalysis software. The percent demethylated peptide was calculated by first multiplying the K27me1 peak by 2 and the K27me0 peak by 3 to account for the multiple […]
(§1) the reflectron positive mode and analyzed on Bruker FlexAnalysis software. […]

[2] = molecular target: T2, KDM8 (JMJD5) (Homo sapiens, UniProt Q8N371); assay: MALDI-TOF assay for JMJD5 arginine hydroxylation of peptide; details: peptide substrate
T2 construct: we recombinantly expressed the catalytic domains of 12 wild type dioxygenases; made in house
T2 sequence (Q8N371 271-416 limits assumed): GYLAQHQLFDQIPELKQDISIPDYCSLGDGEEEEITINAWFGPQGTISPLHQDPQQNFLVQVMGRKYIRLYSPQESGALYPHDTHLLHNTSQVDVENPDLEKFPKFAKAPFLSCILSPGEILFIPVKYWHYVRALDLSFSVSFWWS

[3] = molecular target: T3, PHD3 (EGLN3) (Homo sapiens, UniProt Q9H6Z9); assay: MALDI-based assay EGLN3 prolyl hydroxylation of peptide; details: MALDI-TOF, peptide substrate
T3 construct: Full length EGLN3 construct plasmid with; TEV-His (N); host or cells: E. coli BL21 (DE3)
T3 sequence (Q9H6Z9 whole entry): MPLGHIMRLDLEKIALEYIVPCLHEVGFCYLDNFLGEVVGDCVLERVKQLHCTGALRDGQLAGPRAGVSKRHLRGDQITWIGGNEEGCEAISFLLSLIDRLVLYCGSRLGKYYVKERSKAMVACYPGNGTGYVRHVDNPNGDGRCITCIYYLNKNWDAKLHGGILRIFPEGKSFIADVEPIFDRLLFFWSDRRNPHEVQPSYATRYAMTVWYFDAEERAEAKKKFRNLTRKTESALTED
Protocol: demethylation events on the peptide. The percent peak area was calculated, and the K27me2, me1,
and me0 peaks were summed to get the relative percent demethylated peptide.
MALDI-based assay for FTO and ALKBH5: To determine the enzymatic activity of FTO and
ALKBH5 recombinant proteins in the presence of L-Leu NOG 6, a previously published methods
were utilized.15, 18 Briefly,10 µM of each protein was incubated in the presence of 10 µM RNA
7.5, 150 mM KCl, 50 µM L-Leu NOG or equivalent volume of water in 10 µL aliquots. The
samples were placed on ice for 10 minutes followed by addition of 200 µM 2OG or equivalent
volume of water. After incubation at 37 °C for 30 minutes, samples were desalted with 3 µL of BT
spotted on a MALDI plate with 1uL sample and 1uL of 3-HPA matrix and monitored with Bruker
FlexControl in the reflectron negative mode and analyzed on Bruker FlexAnalysis software.
Relative inhibition was monitored via assessing percent product decrease with L-Leu NOG
MALDI-based assay for C14orf169 (NO66) and MINA: To monitor the enzymatic activity of […]
1 µL S-DHB matrix were spotted on a MALDI plate and monitored with Bruker FlexControl in
as §1
was monitored via assessing percent product decrease with L-Leu NOG samples compared to no […]
monitored following a reported method.19 To monitor the enzymatic activity of EGLN1 and 3 […]

CC(C)CC(NC(=O)C(=O)O)C(=O)O (stereo not drawn) [compound 6, N-oxalyl leucine]
No inhibition: inhibition of KDM6B [1] | inhibition of JMJD5 [2] | inhibition of PHD3 [3]
